The values below come from patent US5981256A, “Recombinant stratum corneum chymotryptic enzyme (SCCE)” (priority 1993, dated 1999).

Square brackets hold non-standard residues; d marks the D form. Peptide text beside a SMILES is read from it. * marks the point of attachment. Sta = CC(C)C[C@H](N)[C@@H](O)CC(=O)O; Isovaleryl = CC(C)CC(=O)*

For experiment [1], the target named is proteinase associated with plantar stratum corneum cells (native human stratum corneum chymotryptic enzyme, SCCE) (Homo sapiens, UniProt P49862). Nature of the experiment: Hydrolysis of S-2586 by the proteinase associated with plantar stratum corneum cells (suspended cells). The following applies: for Activity (%) (±SD, n = 3), hydrolysis of S-2586: pH 8, control = 100.
Chain of proteinase associated with plantar stratum corneum cells (native human stratum corneum chymotryptic enzyme, SCCE) (P49862 30-253): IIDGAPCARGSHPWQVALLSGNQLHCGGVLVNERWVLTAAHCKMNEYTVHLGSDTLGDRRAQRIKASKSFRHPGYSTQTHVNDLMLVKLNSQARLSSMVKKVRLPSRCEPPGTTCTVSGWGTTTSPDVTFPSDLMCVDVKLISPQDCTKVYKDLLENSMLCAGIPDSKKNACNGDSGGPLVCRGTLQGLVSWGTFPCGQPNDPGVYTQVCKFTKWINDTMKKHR

Experiment [2] relates to plantar stratum corneum. Nature of the experiment: Cell release (cell shedding) from plantar stratum corneum in vitro. Type of experiment: cell-based. The following applies: Homo sapiens, 16 hours at 37° C., mean and SD for five tissue pieces. The procedure: A method to quantify the cell shedding was then developed, which allowed studies on the effects of various parameters such as temperature, pH, and enzyme inhibitors. Cylinders of plantar stratum corneum with diameter 3 mm were prepared with a biopsy punch from flakes of tissue taken and freed from loosely attached surface cells as described above in 1.1. […] The remaining tissue was removed and placed in fresh media for continued incubation. Tubes with released cells were centrifuged for 2 min at 5000 g to collect the cells. The cell pellets were washed once with 0.5 ml of phosphate buffered saline and then treated at 60° C. for 1.5 hours with 0.6 ml of 1 M sodium hydroxide. The alkali soluble protein was quantified according to Lowry et al., 1951, and taken as a measure of the amount of released cells.

For experiment [3], the target named is T1, 25 kD caseinolytic enzyme of plantar corneocytes (native stratum corneum chymotryptic enzyme, SCCE) (Homo sapiens, UniProt P49862).
T1 construct: from tissue; host or cells: human plantar stratum corneum, dissociated corneocytes (suspended cells, SDS-extract or KCl-extract)
T1 sequence (P49862 30-253): as above
Nature of the experiment: Zymography (SDS-PAGE with co-polymerized casein) of extracts of plantar corneocytes. As to conditions: pH 8. Format: biochemical. Here is the method: C: The effect of inhibitors. sc=SDS-extract of plantar corneocytes; c=bovine chymotrypsin; t=bovine trypsin. The inhibitors were present during pretreatment with Triton X-100 and the subsequent incubation. […] Leupeptin and chymostatin were added as solutions in dimethylsulphoxide (DMSO). Buffer for pretreatment and incubation=0.1 M Tris-HCl pH 8 with final concentration of DMSO 1% (v/v). Other conditions as in A.
SDS-PAGE and Coomassie blue-staining (A) and zymography after SDS-PAGE with co-polymerized casein (B) of fractions 2, 6, and 10 from the chromatogram shown in FIG. 10. Molecular weight markers to the left.
Therefore experiments with zymography were performed. For this reason KCl extracts of corneocytes were prepared for electrophoresis according to Laemmli (Laemmli 1970) but with no reducing agent in the sample buffer and with no heating of the samples. Samples were also prepared by means of extraction of dissociated plantar corneocytes with Laemmli's sample buffer without reducing agent at room temperature. For zymography a modification of the procedure of Horie et al. (Horie et al. 1984) was adopted. Polyacrylamide gel elctrophoresis in the presence of sodium dodecyl sulphate (SDS-PAGE) was carried out according to Laemmli in 12.5% gels with 1% co-polymerized heat-denatured casein. […]

The test system of experiment [4] is plantar stratum corneum. As to conditions: cited from earlier work.
For experiment [5], the system named is desmoglein I (DG I) in plantar stratum corneum. The experiment can be described thus: Degradation of desmoglein I (DG I) in plantar stratum corneum during cell shedding in vitro (immunoblot). Format: cell-based, human. The following applies: inhibitor 330 μM; 24 hours. Here is the method: The fate of desmoglein I (DG I) during cell shedding in vitro from plantar stratum corneum was studied. Plantar stratum corneum was incubated as described above in 1.1, and still cohesive tissue was separated from dissociated cells. Cells and tissue were extracted in a buffer containing 0.1 M Tris-HCl pH 9, 9 M urea, 2% sodium dodecylsulphate, 1% mercaptoethanol, 1 ml buffer per 20 mg of tissue, for 15 hours at 37° C. The extracts were prepared for polyacrylamide gel electrophoresis in 7.5% gels in the presence of sodium dodecyl sulphate (SDS-PAGE) according to Laemmli (Laemmli, 1970), followed by electrophoretic transfer (Towbin et al., 1979) to a nitrocellulose membrane (Bio-Rad, Richmond, Calif.) which was probed with a rabbit polyclonal antiserum prepared against DG I purified from bovine muzzles (Gorbsky et al. 1985). Bound antibodies were detected with alkaline phosphatase conjugated goat anti-rabbit immunoglobulins (Bio-Rad, Richmond, Calif.) (Blake et al. 1984).
SDS-PAGE and immunoblotting was performed as described above. Densitometric scannings of the immunblots were carried out in a Shimadzu CS-9000 flying spot scanner (Shimadzu, Kyoto, Japan) with reflected light at 560 nm in the zigzag mode.
A general note: A western blot detects proteins with antibodies after separation by electrophoresis.

For experiment [6], the target named is T2, native stratum corneum chymotryptic enzyme (SCCE), KCl-extract of dissociated plantar corneocytes (Homo sapiens, UniProt P49862).
T2 construct: from tissue; host or cells: human plantar stratum corneum, dissociated corneocytes (suspended cells, SDS-extract or KCl-extract)
T2 sequence (P49862 30-253): as above
Nature of the experiment: Proteinase assay with chromogenic substrate S-2586, native SCCE. Format: biochemical. As to conditions: S-2586 1.2 mM, pH 8.0, FIG. 9B. The procedure: (§1) Stock solution of MeO-Suc-Arg-Pro-Tyr-pNA (S-2586) was prepared in distilled water, of Suc-Ala-Ala-Pro-Phe-pNA (SEQ ID NO:11) (Boehringer, Mannheim, Germany) in 1-methyl-2-pyrrolidone (final concentration of solvent in incubation mixtures 4%) and of chymostatin in dimethyl sulphoxide (final concentration of solvent in incubation mixtures 1%). Cathepsin G from purulent human sputum was obtained from E. Lotti, Geneva, Switzerland. The source of SCCE was KCl-extract of dissociated plantar corneocytes prepared as described above.
(§2) Incubations were performed at 37° C. in microtiter plates. The total incubation volume was 135 μl. Each incubation mixture contained Tris-HCl pH 8.0 (final concentration 0.08 M), KCl (final concentration 0.2 M), 100 μl substrate solution, 25 μl enzyme source (appropriately diluted in 0.1 M Tris-HCl pH 8.0, 1.0 M KCl) and 10 μl inhibitor solution.
(§3) In FIG. 9, A-C, MeO-Suc-Arg-Pro-Tyr-pNA (S-2586, initial concentration 1.2 mM) was used as substrate. In D the initial concentration of both substrates was 1.2 mM.

Experiment [7] deals with bovine chymotrypsin (Bos taurus, UniProt P00766). The experiment can be described thus: Proteinase assay with chromogenic substrate S-2586, bovine chymotrypsin. Type of experiment: biochemical. The following applies: S-2586 1.2 mM; pH 8.0; 37° C.; FIG. 9B. The procedure:
as §1, §2, §3

For experiment [8], the target named is T3, human cathepsin G (from purulent human sputum) (Homo sapiens, UniProt P08311).
T3 construct: Cathepsin G from purulent human sputum; tissue E. Lotti, Geneva, Switzerland; host or cells: purulent human sputum
T3 sequence (P08311 21-244 limits assumed): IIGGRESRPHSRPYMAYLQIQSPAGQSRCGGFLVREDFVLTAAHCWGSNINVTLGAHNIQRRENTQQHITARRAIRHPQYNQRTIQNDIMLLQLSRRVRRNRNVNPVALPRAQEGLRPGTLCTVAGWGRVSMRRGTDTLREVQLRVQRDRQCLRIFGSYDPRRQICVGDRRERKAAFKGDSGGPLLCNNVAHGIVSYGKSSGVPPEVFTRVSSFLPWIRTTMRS
The experiment can be described thus: Proteinase assay with chromogenic substrate S-2586, human cathepsin G. Format: biochemical. The following applies: S-2586 1.2 mM; pH 8.0; 37° C.; FIG. 9B. Here is the method: as §1, §2, §3

The target of experiment [9] is T4, recombinant human stratum corneum chymotryptic enzyme (rSCCE), SEQ ID NO:2 (Homo sapiens, UniProt P49862).
T4 construct: made in house; host or cells: murine C127 cells (ATCC CRL 1616), vector pS507
T4 sequence (P49862 30-253): as the sequence (P49862 30-253) above
The experiment can be described thus: S-2586 hydrolysing activity of recombinant SCCE with inhibitors. The following applies: no inhibitor = 100. Type of experiment: biochemical. The procedure: as §2, §3
The experimental design was as outlined in Example 3.2.

[10] abbreviates: pH 8, read-out: Activity (%) (±SD, n = 3), hydrolysis of S-2586.

With `O=C(O)CN(CCN(CC(=O)O)CC(=O)O)CC(=O)O` [EDTA], the activity at 4200 µM in [1] (setting [10]) came out at 109 ± 1%.

In the case of `NC(=O)CI` [Iodoacetamide, iodoacetamide], in experiment [2] (iodoacetamide 1 × 10^-3 mol/l), at 1000 µM the inhibition was 6 ± 13%.

Take `CC(=O)N[C@@H](CC(C)C)C(=O)N[C@@H](CC(C)C)C(=O)N[C@H](C=O)CCCNC(=N)N` [Leupeptin, leupeptin]: in experiment [3] (leupeptin 160 μM), the “Inhibition of caseinolytic activity (zymography)” value is on record as “not by leupeptin”. In addition, in experiment [4], the “Effect on the in vitro cell shedding” value is “no effect”. For the same compound, the activity at 325 µM in experiment [1] (setting [10]) is 93 ± 3%.

In the case of `O=S(=O)(F)Cc1ccccc1` [PMSF, phenylmethylsulphonyl fluoride], the “Activity (%) (±SD, n = 3), hydrolysis of S-2586” value in experiment [1] (PMSF 1 mM, preincubated 1 hour at room temperature) was 8 ± 3%.

On to `CC(C)CC(=O)N[C@H](C(=O)N[C@H](C(=O)N[C@@H](CC(C)C)[C@@H](O)CC(=O)N[C@@H](C)C(=O)N[C@@H](CC(C)C)[C@@H](O)CC(=O)O)C(C)C)C(C)C` [Pepstatin, pepstatin] (Isovaleryl-VV[Sta]A[Sta]-OH), for which, in [2] (pepstatin 1 × 10^-4 mol/l), testing at 100 µM gave an inhibition of 8 ± 4%.

For chymostatin, the “Inhibition of the transformation of anti-DG I positive components from 160 kD to 95 and 80 kD” value in experiment [5] is “inhibition”. Moreover, the “Inhibition of caseinolytic activity (zymography)” value in experiment [3] (chymostatin 40 μM) was “could be inhibited”. The “Inhibition of S-2586 hydrolysis” value in [6] (37° C.), in [7] and in experiment [8] was “caused inhibition” each time. In experiment [6], the “Inhibitor concentration that caused 50% inhibition, SCCE compared with chymotrypsin and cathepsin G” value is recorded as “more than three orders of magnitude higher”. Further, the “Activity (%), S-2586 hydrolysing activity” value in experiment [9] (chymostatin 0.64 μM) stood at 74.9%; in experiment [9] (chymostatin 2.56 μM), 33%; in experiment [9] (chymostatin 41 μM), 1.9%. For the same compound, the “Inhibition of the first step of cell shedding in vitro” value in experiment [4] (first step, takes place with or without EDTA) is “could be inhibited”. For the same compound, the “Inhibition of the second step of cell shedding in vitro” value in [4] (second step, only in the presence of EDTA) is on record as “could be inhibited”. Besides, the “Activity (%) (±SD, n = 3), hydrolysis of S-2586” value is on record as 66 ± 9% in experiment [1] (chymostatin 11 μM, 5% DMSO); 32 ± 0% in [1] (chymostatin 55 μM, 5% DMSO); 15 ± 3% in experiment [1] (chymostatin 275 μM, 5% DMSO).
